Tests used:
[1] = tested on: rat lung membrane SMBS; assay: Receptor-binding assessment test of compounds using rat lung membranes ([125I]-iodocyanopindolol ligand binding assay); conditions: ratio of inhibiting specific binding of [125I]-iodocyanopindolol to rat lung membrane SMBS; test compound 1 μM
Method: Receptor-Binding Assessment Test of Compounds Using Rat Lung Membranes
The assessment test was carried out according to the method of Sugasawa, T. et al., J. Biol. Chem., 272, 21244-21252 (1997).
Preparation of Rat Lung Membranes
Lung taken out from SD male rat (7-week old under test, Charles River Laboratories Japan, Inc.) was removed trachea and blood vessels to shred and washed with iced tris-saline buffer (10 mM tris hydrochloric acid-154 mM sodium chloride, pH7.4). The resultant was homogenized by Hiscotron with ice-cold tris-saline buffer containing a homogenization buffer (1 mM ethylenediaminetetraacetic acid (EDTA), 1 mM 4-(2-aminoethyl)benzenesulfonyl fluoride (AEBSF), 5 μg/ml aprotinin, 5 μg/ml leupeptine) (maximum rate: 1 minute). The supernatant after low-speed centrifugation (1500×g, 20 minutes, 4° C.) was ultracentrifuged (100000×g, 20 minutes, 4° C.), and the pellet was suspended in tris-saline buffer to store at −80° C. The protein concentrations were determined by Bio-Rad Protein Assay Kit using bovine serum albumin (BSA) as a standard.
To each well in protein-nonabsorptive round-bottom 96-well assay plate (commercially available from Iwaki Glass Co., Ltd.) were added tris-saline buffer (200 μl) containing 1 nM [^125I]-iodocyanopindolol (commercially available from Amersham plc), 10 μM serotonine, 20 μm dl-propranolol, 10 μM phentolamine, 1.1 mM ascorbic acid and 100 μg lung membrane, and the mixture was pipetted to combine and then incubated at 37° C. for 30 minutes. The test compounds were dissolved in 100% dimethyl sulfoxide solution, and thereto was added 2 μl (final DMSO concentration: 1%). In order to calculate nonspecific binding amounts, to the mixture was added L-threo-3-(3,4-dihydroxyphenyl)-N-[3-(4-fluorophenyl)propyl]serine pyrrolidine amide at 100 μM of the final concentration as an alternative to the test compounds. During this time, 100 μl of 0.3% polyethyleneimine (PEI)/tris-saline buffer was added to MultiScreen plate (96-well B glass fiber, Millipore Cat. No. MAFB NOB10), and incubated for over 30 minutes. The resultant was filtered with aspiration (aspiration by the addition of 200 μl iced tris-saline buffer) to wash, and the reaction solutions on 96-well assay plate were filtered with aspiration to wash four times on MultiScreen plate. B glass fiber filter paper at the bottom of MultiScreen plate was punched out, and γ-ray doses of [^125I]-iodocyanopindolol trapped on the filter paper were determined as binding amounts. The binding amounts in the presence of DMSO (final concentration: 1%) were total binding amounts, and the binding amounts in the presence of 100 μM L-threo-3-(3,4-dihydroxyphenyl)-N-[3-(4-fluorophenyl)propyl]serine pyrrolidine amide were nonspecific binding amounts. The values subtracted the nonspecific binding amounts from the total binding amounts were the specific binding amounts. The binding activity of a compound was calculated according to the following formula, which was shown in the ratio of inhibiting the specific binding of [^125I]-iodocyanopindolol to rat lung membrane SMBS by the test compound.

[2] = tested on: Corticosterone generation; assay: Assessment test of steroid hormone synthesis inhibition (Corticosterone generation in rat adrenal gland cells stimulated with cAMP); type: cell-based; conditions: inhibition rate of 10 μM test article to Corticosterone generation, 2 hours with cAMP
Method: Assessment Test of Steroid Hormone Synthesis Inhibition
Control examples 1 to 4: Control example 1 was Example 350 of Patent Document 2. Control examples 2 to 4 were synthesized according to Patent Document 2.
Adrenal glands were taken out from rats, and removed excess connective tissues, adiposes and membranes in D-MEM. The adrenal glands were transferred to polytubes, and quickly segmentalized with scissors. Thereto was added D-MEM containing 1 mg/mL collagenase and […] DNase I, and then the mixture was shaken at 37° C. for 10 minutes in 80 times/minute. Then, the mixture was pipetted by 1 mL truncated pipette tip, and shaken again under the same condition. After 10 minutes, the mixture was pipetted again by 1 mL pipette tip, and the cell suspension was filtered through metal mesh. The filtrate was centrifuged at 4° C. for 5 minutes in 500 g. The supernatant was removed, and thereto was added a mixed solution of 0.16 M NH4Cl and 0.17 M Tris-HCl in 3 mL. The mixture was let stand on ice for 5 minutes, and then centrifuged under the same condition. Then, the supernatant was removed and then thereto was added D-MEM. The cell suspension was prepared and centrifuged under the same condition. Again, the supernatant was removed and then thereto was added D-MEM to give a cell suspension. The cell suspension was filtered by Cell Strainer (BD Falcon®). The filtrate was centrifuged under the same condition. After the completion of the centrifugation, the supernatant was removed, and thereto was added D-MEM containing 1% Penicillin Streptomycin Mixed Solution and 10% FBS. The mixture was seeded in Multiple well plate for adhesive cell culture, 96 wells (IWAKI) in 10000 cells/well, and incubated at 37° C. overnight in CO2 incubator.
Test article concentrations were prepared in DMSO to 2000 μM, and D-MEM containing 20 μM test article in D-MEM was prepared.
Cell-seeded plate was incubated overnight, and then the medium was removed and thereto was added D-MEM containing 20 μM test article in 50 μL/well. Then, to the mixture was promptly added D-MEM containing 20 μM cAMP in 50 μL/well so that the final concentration of the test article was 10 μM. After the addition of 2 types of D-MEM, the mixture was incubated at 37° C. for 2 hours in CO2 incubator. After 2 hours, the supernatant (50 μL) of the medium was collected. For cells, the cell toxicity of the test article was assessed according to a conventional method using Cell Titer-Glo® (Promega). For the collected supernatant, the Corticosterone concentration in the supernatant was determined according to a conventional method using Corticosterone EIA kit (Cayman).
The inhibition rate of 10 μM test article to Corticosterone generation was calculated according to the following formula confirming that the cell toxicity by the test article was not recognized.

[3] = tested on: Guinea Pig Late Asthma Model; assay: Assessment of compounds in guinea pig late asthma model; type: in vivo; conditions: 3 mg/kg orally one hour before antigen challenge
Method: Assessment of Compounds in Guinea Pig Late Asthma Model
The assessment was carried out using a compound obtained in Example 1.
Hartley male guinea pigs (commercially available from Japan SLC, Inc.) were pre-bred about 1 week after arrival, and then exposed by inhalation to 2% (w/v) ovalbumin (OA) saline in a plastic box (4 guinea pigs/box) for 5 minutes using a ultrasonic nebulizer (OMRON NE-U12, condition: maximum nebulizing amounts, maximum air volume), and sensitized (day 0). The same operation was carried out on day 7. On day 14 or 15, each guinea pig was administered 2% OA by inhalation for 5 minutes to initiate a response (challenge). […]
A determination and analysis of respiratory function were carried out according to the method of Penny A. Hutson et al. Am Rev Respir Dis 1988 137, 548-557. The respiratory function was determined before the antigen challenge (before drug administration) and 5 minutes and 1, 2, 3, 4, 5, 6, 7 and 8 hours after the antigen challenge, and wave profiles were imported using MacLab Chart v3.4 (AD Instruments) and analyzed later. […] The sRaw/TV values subtracting the former values were plotted against measured times, and each area under the curve (AUC4-8hr) of each animal was calculated to compare each other in the range of 4 to 8 hours after the antigen challenge. […]

Row | SMILES | Binding Activity (%) (1 μM) [1] | inhibition at 10 µM [2] [%] | AUC4-8 hr ((sRaw/TV) · h) ([3]; OA-sensitized Hartley male guinea pigs, 4 to 8 hours after challenge) | Improvement Rate (%) ([3]; versus control group (0.5% MC), AUC4-8hr, p<0.01 Dunnett's test)
1 | CCNC(=O)NCCn1c(-c2ccc(N3CCOCC3)nn2)cs/c1=N\c1cccc(F)c1 [Example 5] | 83 | -28 | – | –
2 | CNC(=O)NCCn1c(-c2ccc(N3CCOCC3)nn2)cs/c1=N\c1cccc(F)c1 [Example 1, N-{2-[(2Z)-2-[(3-Fluorophenyl)imino]-3-[6-(morpholin-4-yl)pyridazinyl]-1,3-thiazol-3(2H)-yl]ethyl}-N′-methylurea] | 103 | -2 | 0.411 (sRaw/TV) · h | 47
3 | CNC(=O)NCCn1c(-c2ccc(N3CCOCC3)nn2)cs/c1=N\c1ccccc1F [Example 2] | 75 | -8 | – | –

Continued, in another order:

Row | Binding Activity (%) (1 μM) [1] | SMILES | inhibition at 10 µM [2] [%] | AUC4-8 hr ((sRaw/TV) · h) ([3]; OA-sensitized Hartley male guinea pigs, 4 to 8 hours after challenge) | Improvement Rate (%) ([3]; versus control group (0.5% MC), AUC4-8hr, p<0.01 Dunnett's test)
4 | 93 | CNC(=O)NCCn1c(-c2ccc(N3CCOCC3)nn2)cs/c1=N\c1ccccc1Cl [Example 8] | -12 | – | –
5 | 89 | CNC(=O)NCCn1c(-c2ccc(N3CCOCC3)nn2)cs/c1=N\c1cncc(C(F)(F)F)c1 [Example 15] | 11 | – | –
6 | 82 | CCNC(=O)NCCn1c(-c2ccc(N3CCOCC3)nn2)cs/c1=N\c1ccc(F)cc1 [Example 7] | 15 | – | –
7 | 88 | CCNC(=O)NCCn1c(-c2ccc(N3CCOCC3)nn2)cs/c1=N\c1ccc(Cl)cc1 [Example 11] | -8 | – | –

Source: patent publication US20110039848A1, “FIVE-MEMBERED RING COMPOUND” (priority 2008, published 2011)
